Structures are written as SMILES.

Turning to `O=Cc1c(O)cccc1OCC(=O)N(C1CCOCC1)C1CCOCC1` [GBT001203, 2-(2-formyl-3-hydroxyphenoxy)-N,N-bis(tetrahydro-2H-pyran-4-yl)acetamide], the melting point fell in the range of 272 to 275 °C.

A word on the melting point: it is the temperature of the solid-liquid transition.

Values taken from patent US20180186807A1, “COMPOUNDS AND USES THEREOF FOR THE MODULATION OF HEMOGLOBIN” (Global Blood Therapeutics, Inc., priority 2013, published 2018).
